Data as given in ChEMBL document CHEMBL4627354, “Antifungal polyketide derivatives from the endophytic fungus Aplosporella javeedii” (Bioorg Med Chem, 2020).
In brackets after ≈: the same amount, converted by molar mass. Activity calls are given as the source filed them. No cut-off for these calls is given here.

Legend:
Candida albicans [1] = assay: Antifungal activity against hyphae form of Candida albicans ATCC 24433 incubated for overnight by disc diffusion method; format: functional, organism-based
Staphylococcus aureus [2] = assay: Antibacterial activity against Staphylococcus aureus ATCC 29213 by CLSI broth microdilution method; format: functional
Enterococcus faecalis [3] = assay: Antibacterial activity against Enterococcus faecalis ATCC 29212 by CLSI broth microdilution method; format: functional, organism-based
Enterococcus faecium [4] = assay: Antibacterial activity against Enterococcus faecium ATCC 35667 by CLSI broth microdilution method; format: functional, organism-based
Enterococcus faecalis [5] = assay: Antibacterial activity against Enterococcus faecalis ATCC 51299 by CLSI broth microdilution method; format: functional, organism-based
Bacillus subtilis = assay: Antibacterial activity against Bacillus subtilis ATCC 169 by CLSI broth microdilution method; format: functional
Enterococcus faecium [6] = assay: Antibacterial activity against Enterococcus faecium ATCC 700221 by CLSI broth microdilution method; format: functional, organism-based
Escherichia coli = assay: Antibacterial activity against Escherichia coli ATCC 25922 by CLSI broth microdilution method; format: functional, organism-based
Staphylococcus aureus [7] = assay: Antibacterial activity against methicillin-resistant and […] Staphylococcus aureus ATCC 700699 by CLSI broth microdilution method; format: functional; conditions: Mu50 ATCC 700699
[8] = system: Mycobacterium tuberculosis; assay: Antibacterial activity against Mycobacterium tuberculosis H37Rv by CLSI broth microdilution method; format: functional, organism-based
Saccharomyces cerevisiae [9] = assay: Antifungal activity against Saccharomyces cerevisiae incubated for overnight by disc diffusion method; format: functional, organism-based
Candida albicans [10] = assay: Fungicidal activity against hyphae form of Candida albicans ATCC 24433 assessed as log reduction in bacterial viability at 400 uM measured after 6 hrs by time kill assay; format: functional
[11] = Cytotoxicity against human CLS54 cells assessed as reduction in cell viability up to 100 uM measured after 48 hrs by resazurin based fluorescence assay
Saccharomyces cerevisiae [12] = assay: Antifungal activity against Saccharomyces cerevisiae assessed as diameter of zone inhibition incubated for overnight by disc diffusion method; format: functional
THP-1 = assay: Cytotoxicity against human THP1 cells assessed as reduction in cell viability up to 100 uM measured after 48 hrs by resazurin based fluorescence assay; conditions: thp-1, 48 h
Candida albicans [13] = assay: Antifungal activity against hyphae form of Candida albicans ATCC 24433 assessed as diameter of zone inhibition at 1 mM incubated for overnight by disc diffusion method; format: functional; conditions: read-out: DIZ
Huh-7 = assay: Cytotoxicity against human HuH7 cells assessed as reduction in cell viability up to 100 uM measured after 48 hrs by resazurin based fluorescence assay; conditions: huh-7, 48 h
Candida albicans [14] = assay: Antifungal activity against hyphae form of Candida albicans ATCC 24433 assessed inhibition of visible microbe growth incubated for overnight by CLSI microbroth dilution method; format: functional
Candida albicans [15] = assay: Fungicidal activity against hyphae form of Candida albicans ATCC 24433 assessed as reduction in bacterial viability at 474 uM measured after 6 hrs by time kill assay; format: functional, organism-based

| Structure (SMILES) | Activity (Candida albicans [1]) | Activity (Staphylococcus aureus [2]) | Activity (Enterococcus faecalis [3]) | Activity (Enterococcus faecium [4]) | Activity (Enterococcus faecalis [5]) | Activity (Bacillus subtilis) | Activity (Enterococcus faecium [6]) | Activity (Escherichia coli) | Activity (Staphylococcus aureus [7]) | Activity [8] | Activity (Saccharomyces cerevisiae [9]) | MIC (Staphylococcus aureus [2]) [µM] | MIC (Staphylococcus aureus [7]) [µM] | other results |
| --- | --- | --- | --- | --- | --- | --- | --- | --- | --- | --- | --- | --- | --- | --- |
| Cc1c(CCCCC(=O)O)cc(O)c(C=O)c1O | inactive | inactive | inactive | inactive | inactive | inactive | inactive | inactive | inactive | inactive | inactive |  |  |  |
| CCCCCc1cc(O)c(C=O)c(O)c1C |  |  | inactive | inactive | inactive |  | inactive | inactive |  | inactive |  | 50 (≈ 11.1 µg/mL) | 50 (≈ 11.1 µg/mL) | log(activity) (Candida albicans [10]): 3.5; Activity [11]: Non-Toxic; diameter of the inhibition zone (DIZ) (Saccharomyces cerevisiae [12]): 18 mm; Activity (THP-1): Non-Toxic; zone of inhibition at 1000 µM (Candida albicans [13]): 8 mm; MIC (Bacillus subtilis): 25 µM (≈ 5.56 µg/mL); Activity (Huh-7): Non-Toxic; MIC (Candida albicans [14]): 100 µM (≈ 22.2 µg/mL) |
| Cc1c(CCC(=O)O)cc(O)c(C=O)c1O | inactive |  | inactive | inactive | inactive | inactive | inactive | inactive |  | inactive | inactive | 25 (≈ 5.61 µg/mL) | 50 (≈ 11.2 µg/mL) |  |
| Cc1c(CCCC(O)CO)cc(O)c(C=O)c1O (stereo unspecified) | inactive | inactive | inactive | inactive | inactive | inactive | inactive | inactive | inactive | inactive | inactive |  |  |  |
| CN[C@H]1C[C@@H](N)[C@H](O)[C@@H](O[C@@H]2O[C@H](CO)[C@H](O)[C@@H]3O[C@@]4(O[C@H]23)O[C@H]([C@H](N)CO)[C@H](O)[C@H](O)[C@H]4O)[C@@H]1O |  |  |  |  |  |  |  |  |  |  |  |  |  | Activity (Candida albicans [15]): Active |
| Cc1c(CCCCCO)cc(O)c(C=O)c1O | inactive | inactive | inactive | inactive | inactive | inactive | inactive | inactive | inactive | inactive | inactive |  |  |  |
